Experimental data from PubChem BioAssay (NCI).
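Following 48 hours of exposure in 96-well plates, responses at five concentrations were used to interpolate endpoints linearly. TGI: total growth inhibition.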

Columns and labels:
Assay in all cases: growth of human tumour cells (NCI), 48 h
SF-268 CNS = test system: SF-268 CNS
OVCAR-8 ovarian = test system: OVCAR-8 ovarian
HCT-15 colon = test system: HCT-15 colon
HCT-116 colon = test system: HCT-116 colon
PC-3 prostate = test system: PC-3 prostate
SN12C renal = test system: SN12C renal
RPMI-8226 leukemia = test system: RPMI-8226 leukemia
NCI-H23 lung = test system: NCI-H23 lung
MCF7 breast = test system: MCF7 breast
UACC-257 melanoma = test system: UACC-257 melanoma
MALME-3M melanoma = test system: MALME-3M melanoma
HOP-92 NSCLC = test system: HOP-92 NSCLC
SW-620 colon = test system: SW-620 colon
OVCAR-5 ovarian = test system: OVCAR-5 ovarian
A498 renal = test system: A498 renal
NCI-H226 lung = test system: NCI-H226 lung
LOX IMVI melanoma = test system: LOX IMVI melanoma
BT-549 breast = test system: BT-549 breast
HT29 colon = test system: HT29 colon
SK-OV-3 ovarian = test system: SK-OV-3 ovarian
786-0 renal = test system: 786-0 renal
M14 melanoma = test system: M14 melanoma
OVCAR-4 ovarian = test system: OVCAR-4 ovarian
UACC-62 melanoma = test system: UACC-62 melanoma
ACHN renal = test system: ACHN renal
UO-31 renal = test system: UO-31 renal
MDA-N = test system: MDA-N
CAKI-1 renal = test system: CAKI-1 renal
TK-10 renal = test system: TK-10 renal
U251 CNS = test system: U251 CNS
COLO 205 colon = test system: COLO 205 colon
OVCAR-3 ovarian = test system: OVCAR-3 ovarian
T-47D breast = test system: T-47D breast
K-562 leukemia = test system: K-562 leukemia
MDA-MB-435 = test system: MDA-MB-435
NCI-H522 lung = test system: NCI-H522 lung
SF-295 CNS = test system: SF-295 CNS
HCC-2998 colon = test system: HCC-2998 colon
SF-539 CNS = test system: SF-539 CNS
CCRF-CEM leukemia = test system: CCRF-CEM leukemia
HS 578T breast = test system: HS 578T breast
DU-145 prostate = test system: DU-145 prostate
SK-MEL-5 melanoma = test system: SK-MEL-5 melanoma
MDA-MB-231 breast = test system: MDA-MB-231 breast
A549 NSCLC = test system: A549 NSCLC
NCI-H460 lung = test system: NCI-H460 lung
SK-MEL-2 melanoma = test system: SK-MEL-2 melanoma
EKVX NSCLC = test system: EKVX NSCLC
HL-60(TB) leukemia = test system: HL-60(TB) leukemia
SK-MEL-28 melanoma = test system: SK-MEL-28 melanoma
SNB-19 CNS = test system: SNB-19 CNS
KM12 colon = test system: KM12 colon
NCI/ADR-RES ovarian = test system: NCI/ADR-RES ovarian
IGROV1 ovarian = test system: IGROV1 ovarian
MOLT-4 leukemia = test system: MOLT-4 leukemia
RXF 393 renal = test system: RXF 393 renal
HOP-62 NSCLC = test system: HOP-62 NSCLC
SNB-75 CNS = test system: SNB-75 CNS

Measured: TGI

Cc1ccc(OCC2OC(n3cnc4c(N(C)C)nc(Br)nc43)CC2Oc2ccc(C)cc2)cc1 (configuration not stated)
> 100 µM: SF-268 CNS | OVCAR-8 ovarian | HCT-15 colon | HCT-116 colon | PC-3 prostate | SN12C renal | RPMI-8226 leukemia | NCI-H23 lung | MCF7 breast | UACC-257 melanoma | MALME-3M melanoma | HOP-92 NSCLC | SW-620 colon | OVCAR-5 ovarian | A498 renal | NCI-H226 lung | LOX IMVI melanoma | BT-549 breast | HT29 colon | SK-OV-3 ovarian | 786-0 renal | M14 melanoma | OVCAR-4 ovarian | UACC-62 melanoma | ACHN renal | UO-31 renal | MDA-N | CAKI-1 renal | TK-10 renal | U251 CNS | COLO 205 colon | OVCAR-3 ovarian | T-47D breast | K-562 leukemia | MDA-MB-435 | NCI-H522 lung | SF-295 CNS | HCC-2998 colon | SF-539 CNS | CCRF-CEM leukemia | HS 578T breast | DU-145 prostate | SK-MEL-5 melanoma | MDA-MB-231 breast | A549 NSCLC | NCI-H460 lung | SK-MEL-2 melanoma | EKVX NSCLC | HL-60(TB) leukemia | SK-MEL-28 melanoma | SNB-19 CNS | KM12 colon | NCI/ADR-RES ovarian | IGROV1 ovarian

CCCCCCCCCCCCCCCCCCNc1ccn(C2OC(COP(=O)(O)OCC3CCC(n4cnc5c(=O)[nH]cnc54)O3)C(O)C2O)c(=O)n1 (configuration not stated)
47.6 µM: PC-3 prostate
> 100 µM: SF-268 CNS | OVCAR-8 ovarian | HCT-15 colon | HCT-116 colon | SN12C renal | NCI-H23 lung | MCF7 breast | UACC-257 melanoma | MALME-3M melanoma | HOP-92 NSCLC | SW-620 colon | OVCAR-5 ovarian | A498 renal | MOLT-4 leukemia | NCI-H226 lung | LOX IMVI melanoma | BT-549 breast | HT29 colon | SK-OV-3 ovarian | 786-0 renal | M14 melanoma | OVCAR-4 ovarian | UACC-62 melanoma | ACHN renal | UO-31 renal | MDA-N | CAKI-1 renal | TK-10 renal | RXF 393 renal | U251 CNS | COLO 205 colon | OVCAR-3 ovarian | T-47D breast | MDA-MB-435 | NCI-H522 lung | SF-295 CNS | SF-539 CNS | CCRF-CEM leukemia | HS 578T breast | DU-145 prostate | SK-MEL-5 melanoma | A549 NSCLC | HOP-62 NSCLC | NCI-H460 lung | SK-MEL-2 melanoma | SNB-75 CNS | EKVX NSCLC | SK-MEL-28 melanoma | SNB-19 CNS | KM12 colon | NCI/ADR-RES ovarian | IGROV1 ovarian
